Reference: patent US20120295907A1, “INSECTICIDAL COMPOUNDS” (SYNGENTA CROP PROTECTION, LLC, priority 2009, published 2012)

Tests used:
Format in all cases: in vivo
Plutella xylostella = Plutella xylostella (Diamond Back Moth) artificial diet MTP test; settings: 144 h, 200 ppm (concentration in well 18 ppm), L2 larvae, 6 days, larval mortality, growth regulation
Heliothis virescens = Heliothis virescens (Tobacco Budworm) egg test on artificial diet; settings: 96 h, 200 ppm (concentration in well 18 ppm), eggs 0-24 h old on artificial diet, 4 days, egg mortality, larval mortality, growth regulation
Thrips tabaci = Thrips tabaci (Onion Thrips) sunflower leaf disc spray test; settings: foliar, 168 h, 200 ppm spray on sunflower leaf discs, population of mixed ages, 7 days, mortality
Spodoptera littoralis = Spodoptera littoralis (Egyptian Cotton Leafworm) cotton leaf disc spray test; settings: foliar, 72 h, 200 ppm spray on cotton leaf discs, L1 larvae, mortality, feeding behavior, growth regulation 3 DAT
Diabrotica balteata = Diabrotica balteata (Corn Root Worm) artificial diet MTP test; settings: 120 h, 200 ppm (concentration in well 18 ppm), L2 larvae, 5 days, larval mortality, growth regulation

Measured: pest or weed control at 200 ppm

COc1cc(C(=O)Nc2cccc(C(=O)Nc3c(Cl)cc(C(F)(C(F)(F)F)C(F)(F)C(F)(F)F)cc3Br)c2OC)cc(Cl)n1 (stereo not shown) [B146]
≥ 80%: all assays above

COc1c(NC(=O)c2ccc(C(F)(F)F)cc2F)cccc1C(=O)Nc1c(Cl)cc(C(F)(C(F)(F)F)C(F)(F)C(F)(F)F)cc1Br (stereo not shown) [B167]
not listed: Plutella xylostella
≥ 80%: all other assays above

CCc1cc(C(F)(C(F)(F)F)C(F)(F)C(F)(F)F)cc(C)c1NC(=O)c1cccc(NC(=O)c2cccc(Cl)c2)c1OC (stereo not shown) [A8]
≥ 80%: all assays above

COc1c(NC(=O)c2cc(C(C)(C)C)nn2C)cccc1C(=O)Nc1c(Cl)cc(C(F)(C(F)(F)F)C(F)(F)C(F)(F)F)cc1Br (stereo not shown) [B112]
≥ 80%: all assays above

COc1c(NC(=O)c2ccccc2Cl)cccc1C(=O)Nc1c(Cl)cc(C(F)(C(F)(F)F)C(F)(F)F)cc1Cl [E3]
not listed: Plutella xylostella
≥ 80%: all other assays above

COc1c(NC(=O)c2cccc(F)c2F)cccc1C(=O)Nc1c(C)cc(C(F)(C(F)(F)F)C(F)(F)C(F)(F)F)cc1C (stereo not shown) [F8]
≥ 80%: all assays above

COc1c(NC(=O)c2ccccc2C(F)(F)F)cccc1C(=O)Nc1c(Cl)cc(C(F)(C(F)(F)F)C(F)(F)F)cc1Cl [E18]
≥ 80%: all assays above

COc1c(NC(=O)c2ccc(C(C)C)cc2)cccc1C(=O)Nc1c(Cl)cc(C(F)(C(F)(F)F)C(F)(F)C(F)(F)F)cc1Br (stereo not shown) [B25]
≥ 80%: all assays above

COc1c(NC(=O)c2ccc([N+](=O)[O-])c(C)c2I)cccc1C(=O)Nc1c(Cl)cc(C(F)(C(F)(F)F)C(F)(F)C(F)(F)F)cc1Br (stereo not shown) [B161]
not listed: Spodoptera littoralis
≥ 80%: all other assays above

COc1c(NC(=O)c2cc(C)oc2C)cccc1C(=O)Nc1c(Cl)cc(C(F)(C(F)(F)F)C(F)(F)C(F)(F)F)cc1Br (stereo not shown) [B58]
≥ 80%: all assays above

COc1c(NC(=O)c2ccc(F)cc2F)cccc1C(=O)Nc1c(Cl)cc(C(F)(C(F)(F)F)C(F)(F)F)cc1Cl [E22]
≥ 80%: all assays above

CCc1cc(C(F)(C(F)(F)F)C(F)(F)C(F)(F)F)cc(C)c1NC(=O)c1cccc(NC(=O)c2ccccc2Cl)c1OC (stereo not shown) [A9]
≥ 80%: all assays above

COc1c(NC(=O)c2cc(Cl)ccc2Cl)cccc1C(=O)Nc1c(Cl)cc(C(F)(C(F)(F)F)C(F)(F)C(F)(F)F)cc1Br (stereo not shown) [B27]
≥ 80%: all assays above

COc1c(NC(=O)c2ccccc2C(F)(F)F)cccc1C(=O)Nc1c(Cl)cc(C(F)(C(F)(F)F)C(F)(F)C(F)(F)F)cc1Br (stereo not shown) [B20]
≥ 80%: all assays above

COc1c(NC(=O)c2ccnc(C(F)(F)F)c2Cl)cccc1C(=O)Nc1c(Cl)cc(C(F)(C(F)(F)F)C(F)(F)C(F)(F)F)cc1Br (stereo not shown) [B115]
≥ 80%: all assays above

COc1c(NC(=O)c2ccccc2F)cccc1C(=O)Nc1c(Cl)cc(C(F)(C(F)(F)F)C(F)(F)C(F)(F)F)cc1Cl (stereo not shown) [C3]
≥ 80%: all assays above

CCc1cc(C(F)(C(F)(F)F)C(F)(F)C(F)(F)F)cc(C)c1NC(=O)c1cccc(NC(=O)c2cccc(F)c2F)c1OC (stereo not shown) [A20]
≥ 80%: all assays above

COc1c(NC(=O)c2ccc([N+](=O)[O-])c(C)c2Br)cccc1C(=O)Nc1c(Cl)cc(C(F)(C(F)(F)F)C(F)(F)C(F)(F)F)cc1Br (stereo not shown) [B162]
not listed: Spodoptera littoralis
≥ 80%: all other assays above

COc1c(NC(=O)c2cccc(F)c2)cccc1C(=O)Nc1c(C)cc(C(F)(C(F)(F)F)C(F)(F)C(F)(F)F)cc1C (stereo not shown) [F20]
≥ 80%: all assays above

COc1c(NC(=O)c2ccc([N+](=O)[O-])c(C)c2Cl)cccc1C(=O)Nc1c(Cl)cc(C(F)(C(F)(F)F)C(F)(F)C(F)(F)F)cc1Br (stereo not shown) [B163]
not listed: Spodoptera littoralis
≥ 80%: all other assays above

CCc1cc(C(F)(C(F)(F)F)C(F)(F)C(F)(F)F)cc(C)c1NC(=O)c1cccc(NC(=O)c2ccccc2)c1OC (stereo not shown) [A19]
≥ 80%: all assays above

COc1c(NC(=O)c2cccc(C)c2[N+](=O)[O-])cccc1C(=O)Nc1c(Cl)cc(C(F)(C(F)(F)F)C(F)(F)C(F)(F)F)cc1Br (stereo not shown) [B87]
≥ 80%: all assays above

COc1c(NC(=O)c2ccccc2Cl)cccc1C(=O)Nc1c(C)cc(C(F)(C(F)(F)F)C(F)(F)C(F)(F)F)cc1C (stereo not shown) [F3]
≥ 80%: all assays above

COc1c(NC(=O)c2ccc(Br)o2)cccc1C(=O)Nc1c(Cl)cc(C(F)(C(F)(F)F)C(F)(F)C(F)(F)F)cc1Br (stereo not shown) [B52]
≥ 80%: all assays above
